According to patent US20040266766A1, “Selective urokinase inhibitors” (Wilex AG, priority 2001, published 2004):
pKi: −log10 of the molar value. Where a name gives a salt, the structure may show the parent alone. Read-outs that look alike come from different tables or passages of the source.

Columns and labels:
Thrombin = Thrombin (Homo sapiens, UniProt P00734); assay: In vitro inhibition of thrombin (Ki according to Dixon); assay type: biochemical
Method: (§1) In order to determine the inhibitory activity, 200 μl Tris buffer (0.05 mol/l containing the inhibitor, 0.154 mol/l NaCl, pH 8.0), 25 μl substrate (Pefachrome uPA, Pefachrome PL or Pefabloc TH in H2O; Pentapharm Ltd, Basle, Switzerland) and 50 μl urokinase (Calbiochem-Novabiochem GmbH, Bad Soden, Germany) or another appropriate protease e.g. plasmin, thrombin or FXa are incubated for 10 minutes at 30° C. After ca. 30 minutes and 30 cycles the absorption is determined at 405 nm by means of a microplate reader (Mediators PHL, Aureon Biosystems, Vienna, Austria). The Ki values were determined according to Dixon by linear regression using a computer program.

PK = PK (Homo sapiens, UniProt P03952); assay: In vitro inhibition of PK (Ki); assay type: biochemical; conditions: summary table
Method: as §1

[1] = Oral bioavailability and plasma kinetics in mice (serum concentration); assay type: in vivo, Balb/c mice; conditions: mouse; for concentration at 20 min / concentration at 40 min / concentration at 60 min: female, Balb/c, serum, po; for concentration at 20 min: sample at 20 minutes; for concentration at 40 min: sample at 40 minutes; for concentration at 60 min: sample at 60 minutes
Caco-2 cell monolayers = assay: Caco-assay: transport across Caco-2 cell monolayers; assay type: in vitro ADME, human; conditions: for % amount in the basolateral compartment: 10 μg/ml apical, four hours
Method: Transport of the compounds WX-508, WXC-316, WXC-318, WXC-324, WXC-340, WX-532, WX-538, WX-550 and WX-582 across Caco-2 cell monolayers was investigated. In this experiment the bioavailability of the said compounds after oral administration was assessed.
Caco-2-cells (American Type Culture Collection, Rockville, Md., USA) were cultured in Dulbecco's modified Eagle medium (DMEM) (Life Technologies, Gibco BRL, UK) containing 10% vol/vol heat-denatured foetal calf serum (FCS), 1% vol/vol non-essential amino acids, 160 U/ml benzylpenicillin and 100 U/ml streptomycin (Sigma Chemical, St. Louis, Mo., USA). The cells are kept at 37° C. in an atmosphere comprising 95% air and 5% CO2 at 90% relative air humidity. The cells are cultured in […] culture flasks, the medium being replaced every second day and the cells are trypsinized once per week.
For the transport investigations the Caco-2 cells are cultured on porous polycarbonate filter membranes having a pore size of 0.4 μm and a surface of 4.7 cm^2 in clusters of 6 wells (Costar Transwell, Badhoevedorp, Netherlands). The cells are inoculated on each filter at an initial density of 10^4 cells/cm^2. These cells are kept at 37° C. in one of the atmospheres described above. The medium is replaced every second day for a period of three weeks.
On the day of the transport experiment the culture medium was replaced by the same volume of Hank's balanced saline solution (HBSS) buffered with 30 mM HEPES at pH 7.2 (transport medium) and the cells are allowed to equilibrate for 1 hour. Afterwards the apical medium is replaced by 1.5 ml of a solution containing one of the compounds in HBSS/HEPES (10 μg/ml). Cell monolayers are incubated for four hours. Samples of the apical and basolateral compartments are removed at the end of the experiments and used to quantitatively determine the transport of the respective compounds.
The transepithelial electric resistance (TEER) is measured before and after equilibration using a Milicell ERS meter which was connected to a pair of electrodes in order to ensure the integrity of the monolayers formed on the filters. TEER is also measured at the end of the experiments to ensure that the cell monolayer remains coherent.
Samples are taken from the apical and the basolateral side and analysed in a beta counter after adding a scintillation cocktail. All experiments were carried out three times.

urokinase (uPA) = target: T1, urokinase (uPA) (Homo sapiens, UniProt P00749); assay: In vitro inhibition of urokinase (Ki according to Dixon, chromogenic substrate); assay type: biochemical
T1 construct: purchased Calbiochem-Novabiochem GmbH, Bad Soden, Germany
Method: as §1

Plasmin = Plasmin (Homo sapiens, UniProt P00747); assay: In vitro inhibition of plasmin (Ki according to Dixon); assay type: biochemical
Method: as §1

FXa = FXa (Homo sapiens, UniProt P00742); assay: In vitro inhibition of FXa (Ki according to Dixon); assay type: biochemical
Method: as §1

[2] = 30 mg/kg, 30 mg/kg oral, read-out: c in the serum 1st analysis
[3] = 300 mg/kg, 300 mg/kg oral, read-out: c in the serum 1st analysis
[4] = 300 mg/kg, 300 mg/kg oral, read-out: c in the serum 2nd analysis
[5] = 10 mg/kg i.v., time of sample collection 0
[6] = 10 mg/kg i.v., time of sample collection 10
[7] = 10 mg/kg i.v., time of sample collection 30
[8] = list of test substances of Example 17, read-out: Ki human uPA
[9] = summary table, read-out: Ki uPA
[10] = 7.5 mg/kg, 7.5 mg/kg oral, read-out: c in the serum 1st analysis
[11] = 75 mg/kg, 75 mg/kg oral, read-out: c in the serum 1st analysis
[12] = 2.5 mg/kg i.v., time of sample collection 0
[13] = 2.5 mg/kg i.v., time of sample collection 10
[14] = 2.5 mg/kg i.v., time of sample collection 30

Chain of PK (P03952 20-638): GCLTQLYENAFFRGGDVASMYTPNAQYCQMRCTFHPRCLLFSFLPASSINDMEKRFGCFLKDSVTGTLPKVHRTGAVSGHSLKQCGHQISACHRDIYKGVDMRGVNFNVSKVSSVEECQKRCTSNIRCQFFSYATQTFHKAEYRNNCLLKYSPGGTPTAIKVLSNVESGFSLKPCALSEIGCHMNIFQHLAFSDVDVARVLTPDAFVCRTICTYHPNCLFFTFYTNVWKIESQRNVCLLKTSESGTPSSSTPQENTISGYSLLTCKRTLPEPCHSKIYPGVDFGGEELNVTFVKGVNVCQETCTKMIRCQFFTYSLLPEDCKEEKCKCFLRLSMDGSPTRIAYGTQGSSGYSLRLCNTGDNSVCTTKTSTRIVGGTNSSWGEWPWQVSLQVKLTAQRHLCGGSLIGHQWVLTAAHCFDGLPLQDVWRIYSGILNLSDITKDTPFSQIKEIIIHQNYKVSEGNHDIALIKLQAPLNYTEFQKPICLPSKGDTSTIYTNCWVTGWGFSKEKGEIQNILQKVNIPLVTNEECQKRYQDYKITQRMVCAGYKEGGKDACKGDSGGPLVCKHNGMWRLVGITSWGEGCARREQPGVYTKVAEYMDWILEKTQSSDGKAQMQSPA
Chain of Plasmin (P00747 581-810 limits assumed, species assumed): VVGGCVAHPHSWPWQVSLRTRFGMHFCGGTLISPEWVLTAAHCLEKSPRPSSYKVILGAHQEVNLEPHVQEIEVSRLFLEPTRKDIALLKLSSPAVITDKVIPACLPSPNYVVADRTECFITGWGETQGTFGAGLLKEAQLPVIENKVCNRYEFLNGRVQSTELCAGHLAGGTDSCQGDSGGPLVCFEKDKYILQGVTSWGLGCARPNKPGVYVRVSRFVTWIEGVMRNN
Chain of Plasmin (P00747 97-580 partner limits assumed, species assumed): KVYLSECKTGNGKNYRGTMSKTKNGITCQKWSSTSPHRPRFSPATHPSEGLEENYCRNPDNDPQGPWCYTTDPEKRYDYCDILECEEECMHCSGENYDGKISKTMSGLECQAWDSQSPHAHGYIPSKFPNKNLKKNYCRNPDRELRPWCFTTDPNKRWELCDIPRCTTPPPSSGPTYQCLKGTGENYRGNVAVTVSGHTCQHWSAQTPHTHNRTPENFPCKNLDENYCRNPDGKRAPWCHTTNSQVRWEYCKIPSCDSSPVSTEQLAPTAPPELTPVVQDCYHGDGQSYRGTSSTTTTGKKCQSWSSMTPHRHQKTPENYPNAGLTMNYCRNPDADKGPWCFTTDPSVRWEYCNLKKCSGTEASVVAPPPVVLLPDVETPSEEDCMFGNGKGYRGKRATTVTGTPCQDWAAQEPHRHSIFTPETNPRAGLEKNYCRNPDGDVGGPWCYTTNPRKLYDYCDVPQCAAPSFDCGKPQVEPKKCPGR
Chain of FXa (P00742 235-488 limits assumed): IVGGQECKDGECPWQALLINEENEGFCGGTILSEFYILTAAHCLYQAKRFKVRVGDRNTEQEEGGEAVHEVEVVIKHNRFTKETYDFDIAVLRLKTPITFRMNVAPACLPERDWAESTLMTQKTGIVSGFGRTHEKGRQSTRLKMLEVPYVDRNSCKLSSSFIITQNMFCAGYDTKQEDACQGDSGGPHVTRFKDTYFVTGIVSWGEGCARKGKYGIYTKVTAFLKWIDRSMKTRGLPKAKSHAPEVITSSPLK
Chain of FXa (P00742 41-179 partner limits assumed): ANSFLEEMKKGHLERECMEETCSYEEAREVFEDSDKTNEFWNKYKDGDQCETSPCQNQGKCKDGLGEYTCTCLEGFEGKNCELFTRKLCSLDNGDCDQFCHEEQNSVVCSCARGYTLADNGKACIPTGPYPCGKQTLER

Structure (SMILES)	pKi (PK)	% amount in the basolateral compartment (Caco-2 cell monolayers; first value column)	% amount in the basolateral compartment (Caco-2 cell monolayers; second value column)	% amount in the basolateral compartment (Caco-2 cell monolayers; third value column)	Caco-2 assay % basolateral (Caco-2 cell monolayers; first series, first value)	Caco-2 assay % basolateral (Caco-2 cell monolayers; first series, second value)	Caco-2 assay % basolateral (Caco-2 cell monolayers; first series, third value)	pKi (urokinase (uPA); [8])	pKi (urokinase (uPA); read-out: Ki uPA)	pKi (urokinase (uPA); [9])	pKi (Plasmin)	pKi (Thrombin)	pKi (FXa)	Caco-2 assay % basolateral (Caco-2 cell monolayers; second series, first value)	Caco-2 assay % basolateral (Caco-2 cell monolayers; second series, second value)	Caco-2 assay % basolateral (Caco-2 cell monolayers; second series, third value)	further results
C[C@H](NC(=O)C(CO)NS(=O)(=O)Cc1ccccc1)C(=O)NCc1ccc(NC(=N)N)cc1 (stereo partly drawn) [WX-532, Benzylsulfonyl-(D)-Ser-Ala-(4-guanidinobenzyl)amide hydrochloride]	4.31	0%	0%	0%	0/0/0%	0/0/0%	0/0/0%	7.80	7.80	7.80	4.40	–	–	–	–	–	Ki Thrombin (Thrombin): no inh. at 100 μM *); Ki Thrombin (Thrombin; summary table): no inh. at 100 μM *); concentration at 20 min [1, 2]: 1500 ng/mL; concentration at 40 min [1, 2]: 10900 ng/mL; concentration at 60 min [1, 2]: 900 ng/mL; concentration at 20 min [1, 3]: 5800 ng/mL; concentration at 20 min [1, 4]: 6700 ng/mL; concentration at 40 min [1, 3]: 2900 ng/mL; concentration at 40 min [1, 4]: 3300 ng/mL; concentration at 60 min [1, 3]: 12800 ng/mL; concentration at 60 min [1, 4]: 15000 ng/mL; c in the serum 1st analysis [1, 5]: 61.7 µg/mL; c in the serum 2nd analysis [1, 5]: 68.8 µg/mL; c in the serum 1st analysis [1, 6]: 3.8 µg/mL; c in the serum 2nd analysis [1, 6]: 3.5 µg/mL; c in the serum 1st analysis [1, 7]: 11.4 µg/mL; c in the serum 2nd analysis [1, 7]: 11.2 µg/mL
CN(CC(=O)NCc1ccc(NC(=N)N)cc1)C(=O)C(CO)NS(=O)(=O)Cc1ccccc1 (stereo not shown) [WX-538, benzylsulfonyl-(D)-Ser-N-Me-Gly-(4-guanidinobenzyl)amide]	3.96	0.2%	0.2%	0.1%	0.2%	0.2%	0.1%	7.39	7.39	7.39	3.89	< 4.00	< 4.00	0.1%	0.1%	0%	pKi (Thrombin; summary table): < 4.00; pKi (FXa; summary table): < 4.00; concentration at 20 min [1, 2]: 100 ng/mL; concentration at 40 min [1, 2]: 50 ng/mL; concentration at 60 min [1, 2]: 200 ng/mL; concentration at 20 min [1, 3]: 2500 ng/mL; concentration at 40 min [1, 3]: 3500 ng/mL; concentration at 60 min [1, 3]: 2300 ng/mL; c in the serum 1st analysis [1, 5]: 45.8 µg/mL; c in the serum 1st analysis [1, 6]: 5.5 µg/mL; c in the serum 1st analysis [1, 7]: 0.6 µg/mL
N=C(N)Nc1ccc(CNC(=O)NNC(=O)[C@@H](CO)NS(=O)(=O)Cc2ccccc2)cc1 [WX-544, BzSO2-(D)-Ser-AzaGly-(4-guanidinobenzyl)amide]	–	–	–	–	–	–	–	–	6.08	–	–	–	–	–	–	–	Ki Thrombin (Thrombin): no inh. at 100 μM *)
N=C(N)Nc1ccc(CNC(=O)[C@H](CCc2ccccc2)NC(=O)C(CO)NS(=O)(=O)Cc2ccccc2)cc1 (stereo partly shown) [WX-550, Benzylsulfonyl-(D)-Ser-HomoPhe-(4-guanidinobenzyl)amide hydrochloride]	3.57	0%	3.1%	0.6%	0%	3.1%	0.6%	7.00	7.00	7.00	5.60	< 4.30	< 4.00	–	–	–	pKi (Thrombin; summary table): < 4.30; pKi (FXa; summary table): < 4.00; concentration at 20 min [1, 10]: 0 ng/mL; concentration at 40 min [1, 10]: 0 ng/mL; concentration at 60 min [1, 10]: 0 ng/mL; concentration at 20 min [1, 11]: 0 ng/mL; concentration at 40 min [1, 11]: 300 ng/mL; concentration at 60 min [1, 11]: 0 ng/mL; c in the serum 1st analysis [1, 12]: 7.2 µg/mL; c in the serum 1st analysis [1, 13]: 0.7 µg/mL; c in the serum 1st analysis [1, 14]: 0.02 µg/mL
N=C(N)Nc1ccc(S(=O)(=O)NCCNC(=O)C(CO)NS(=O)(=O)Cc2ccccc2)cc1 (stereo not shown) [WX-568, N-[2-(4-guanidino-benzenesulfonylamino)-ethyl]-3-hydroxy-2-phenylmethanesulfonylamino-propionamide hydrochloride]	–	–	–	–	–	–	–	–	5.68	–	–	< 3.00	< 3.00	–	–	–	–
C[C@@H](C(=O)NCc1ccc(NC(=N)N)cc1)N(C)C(=O)[C@@H](CO)NS(=O)(=O)Cc1ccc(Cl)cc1 [WX-582, 4-chlorobenzylsulfonyl-(D)-Ser-N-Me-Ala-(4-guanidinobenzyl)amide]	4.24	0.4%	3.1%	5.2%	0%	3.1%	5.2%	8.00	8.00	–	–	–	–	0.4%	2.9%	3.0%	concentration at 20 min [1, 10]: 0 ng/mL; concentration at 40 min [1, 10]: 0 ng/mL; concentration at 60 min [1, 10]: 0 ng/mL; concentration at 20 min [1, 11]: 1000 ng/mL; concentration at 40 min [1, 11]: 700 ng/mL; concentration at 60 min [1, 11]: 400 ng/mL; c in the serum 1st analysis [1, 12]: 11.5 µg/mL; c in the serum 1st analysis [1, 13]: 0.8 µg/mL; c in the serum 1st analysis [1, 14]: 0.1 µg/mL
N=C(N)Nc1ccc(CNC(=O)CNC(=O)C(CO)NC(=O)Nc2cccc(C(=O)O)c2)cc1 (stereo not drawn) [WX-C324, 3-Carboxyphenyl-aminocarbonyl-(D)-Ser-Gly-(4-guanidinobenzyl)amide hydrochloride]	–	0.1%	0.1%	2.0%	0.1%	0.1%	2.9%	–	5.51	–	–	–	–	0%	0%	3.0%	–
